From patent EP3698777A1, “COMPOSITION FOR PREVENTING AND TREATING DEPRESSIVE AND COGNITIVE SYMPTOMS” (NEURAXPHARM ITALY S.P.A., priority 2019, dated 2020)

What was measured:
[1] = tested on: Human microglia cells HMC3; assay: Cell viability test (MTT assay); assay type: cell-based; conditions: 24 hours incubation, saffron extract 1 or 3 µg/mL, NAC 200 or 600 µM, fish oil 8.5 or 28.5 µg/mL, Figure 1
Experimental: Human microglia cells HMC3 (ATCC® CRL-3304™) were cultured in EMEM (Eagle's minimum essential medium) containing 10% FBS (fetal bovine serum) and PSG (1000 U/ml of Penicillin, 10000 ug/ml of Streptomycin, 29.2 mg/ml of L-Glutamine). The HMC3 cells were placed in 96-well plates with a density of 40,000 cells/well and let to adhere overnight in an incubator at 37°C, 5% CO2. The cells were then treated or not with different concentrations of the substances of the invention (saffron extract (1 µg/mL or 3 µg/mL), NAC (200 µM or 600 µM) or fish oil (8.5 µg/mL or 28.5 µg/mL) dissolved in EMEM with 10% FBS). After 24 hours incubation, cell viability was determined by MTT assay. Then, 10 µL of MTT (5 mg/mL solution) were added to the cells and incubated for 1 hour, followed by removal of the medium and dissolution of the crystals formed in 100 µL of isopropanol. Absorbance at 570 nm was measured with a spectrophotometer (SEAC SIRIO S) and the cell viability was expressed as a percentage of untreated control cells.

[2] = ORAC test (Oxygen Radical Absorbance Capacity); conditions: single ingredients taken at their percentage composition in the combination; combination = 1000 mg fish oil + 600 mg NAC + 30 mg dry saffron extract; Figure 2
Experimental: The ORAC method was used to assess the antioxidant activity of the substances of the invention by measuring the ability to protect the fluorescent probe (fluorescein) from damage due to peroxyl radical generated by spontaneous decomposition of AAPH (2,2'-azobis (2-amidine-propane) dihydrochloride) at 37°C, with consequent loss of fluorescence. The protective effect of the substances of the invention, alone or in combination, was measured by evaluating the longer area of time/fluorescence intensity under the curve (AUC) of the sample compared to the blank (AUC), wherein substances are not present. Trolox was the antioxidant used as the calibration standard, the ORAC results being expressed as Trolox equivalent micromol/gram of sample (i.e. µmol TE/g). […]
The ORAC test was performed by adding 150 µL of working solution with fluorescein to all the microplate wells, followed by the addition of 25 µL of diluted buffer (white), 50 µL of diluted buffer (control), 25 µL of standard (Trolox 6.25 - 50 µM) or 25 µL of the samples prepared before filling the microplate wells. […] The plate was immediately transferred to the plate reader and the fluorescence was measured every minute for 35 minutes. Fluorescence readings refer to the highest reading of the wells in which no AAPH (controls) is added.
The net AUC of the standards and samples were calculated. […]

For `CC(=O)N[C@@H](CS)C(=O)O` [NAC, N-acetylcysteine], the cell viability [1] was “do not influence the cell viability” and the “antioxidant activity (ORAC)” value [2] was 24.04 TE µmol/g.
